{
  "source": "paper PMC7156458",
  "about": "“Synthetic biology based construction of biological activity-related library of fungal decalin-containing diterpenoid pyrones” (Nature Communications, 2020)",
  "target": "Aβ42 (Homo sapiens, UniProt P05067)",
  "sequence (P05067 672-713)": "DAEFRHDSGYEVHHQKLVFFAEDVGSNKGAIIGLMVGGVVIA",
  "experiment": "Th-T (thioflavin-T) assay of Aβ42 aggregation",
  "format": "biochemical",
  "details": "for Th-T fluorescence of Aβ42 with compound, mean of three wells (Fig. 7a source data): concentration 50, unit not given",
  "data": [
    {"smiles": "C=C1CCC2C(C)(CCC=C(C)C)C(O)CCC2(C)C1Cc1c(OC)oc(CO)c(C)c1=O", "note": "(stereo not drawn) [Compound 12]", "values": [
      {"measurement": "Th-T fluorescence of Aβ42 with compound, mean of three wells (Fig. 7a source data)", "setting": "time-course reading M143", "value": 1.6964},
      {"measurement": "Th-T fluorescence of Aβ42 with compound, mean of three wells (Fig. 7a source data)", "setting": "time-course reading M144", "value": 1.681},
      {"measurement": "Th-T fluorescence of Aβ42 with compound, mean of three wells (Fig. 7a source data)", "setting": "time-course reading M145", "value": 1.696},
      {"measurement": "Th-T fluorescence of Aβ42 (sheet Fig. 7a), mean of three wells", "setting": "head suffix _10 (concentration 10), reading M63", "value": 3.408},
      {"measurement": "Th-T fluorescence of Aβ42 (sheet Fig. 7a), mean of three wells", "setting": "head suffix _10 (concentration 10), reading M64", "value": 3.415},
      {"measurement": "Th-T fluorescence of Aβ42 (sheet Fig. 7a), mean of three wells", "setting": "head suffix _10 (concentration 10), reading M65", "value": 3.397},
      {"measurement": "Th-T fluorescence of Aβ42 (sheet Fig. 7a), mean of three wells", "setting": "head suffix _10 (concentration 10), reading M66", "value": 3.3918},
      {"measurement": "Th-T fluorescence of Aβ42 (sheet Fig. 7a), mean of three wells", "setting": "head suffix _10 (concentration 10), reading M67", "value": 3.364},
      {"measurement": "Th-T fluorescence of Aβ42 (sheet Fig. 7a), mean of three wells", "setting": "head suffix _10 (concentration 10), reading M68", "value": 3.364},
      {"measurement": "Th-T fluorescence of Aβ42 (sheet Fig. 7a), mean of three wells", "setting": "head suffix _10 (concentration 10), reading M69", "value": 3.344},
      {"measurement": "Th-T fluorescence of Aβ42 (sheet Fig. 7a), mean of three wells", "setting": "head suffix _10 (concentration 10), reading M70", "value": 3.357},
      {"measurement": "Th-T fluorescence of Aβ42 (sheet Fig. 7a), mean of three wells", "setting": "head suffix _10 (concentration 10), reading M71", "value": 3.333},
      {"measurement": "Th-T fluorescence of Aβ42 (sheet Fig. 7a), mean of three wells", "setting": "head suffix _10 (concentration 10), reading M72", "value": 3.332},
      {"measurement": "Th-T fluorescence of Aβ42 (sheet Fig. 7a), mean of three wells", "setting": "head suffix _10 (concentration 10), reading M73", "value": 3.302},
      {"measurement": "Th-T fluorescence of Aβ42 (sheet Fig. 7a), mean of three wells", "setting": "head suffix _10 (concentration 10), reading M74", "value": 3.307},
      {"measurement": "Th-T fluorescence of Aβ42 (sheet Fig. 7a), mean of three wells", "setting": "head suffix _10 (concentration 10), reading M75", "value": 3.295},
      {"measurement": "Th-T fluorescence of Aβ42 (sheet Fig. 7a), mean of three wells", "setting": "head suffix _10 (concentration 10), reading M76", "value": 3.265},
      {"measurement": "Th-T fluorescence of Aβ42 (sheet Fig. 7a), mean of three wells", "setting": "head suffix _10 (concentration 10), reading M77", "value": 3.239},
      {"measurement": "Th-T fluorescence of Aβ42 (sheet Fig. 7a), mean of three wells", "setting": "head suffix _10 (concentration 10), reading M78", "value": 3.245},
      {"measurement": "Th-T fluorescence of Aβ42 (sheet Fig. 7a), mean of three wells", "setting": "head suffix _10 (concentration 10), reading M79", "value": 3.216},
      {"measurement": "Th-T fluorescence of Aβ42 (sheet Fig. 7a), mean of three wells", "setting": "head suffix _10 (concentration 10), reading M80", "value": 3.214},
      {"measurement": "Th-T fluorescence of Aβ42 (sheet Fig. 7a), mean of three wells", "setting": "head suffix _10 (concentration 10), reading M81", "value": 3.199},
      {"measurement": "Th-T fluorescence of Aβ42 (sheet Fig. 7a), mean of three wells", "setting": "head suffix _10 (concentration 10), reading M82", "value": 3.17},
      {"measurement": "Th-T fluorescence of Aβ42 (sheet Fig. 7a), mean of three wells", "setting": "head suffix _10 (concentration 10), reading M83", "value": 3.151},
      {"measurement": "Th-T fluorescence of Aβ42 (sheet Fig. 7a), mean of three wells", "setting": "head suffix _10 (concentration 10), reading M84", "value": 3.157},
      {"measurement": "Th-T fluorescence of Aβ42 (sheet Fig. 7a), mean of three wells", "setting": "head suffix _20 (concentration 20), reading M63", "value": 2.111},
      {"measurement": "Th-T fluorescence of Aβ42 (sheet Fig. 7a), mean of three wells", "setting": "head suffix _20 (concentration 20), reading M64", "value": 2.103},
      {"measurement": "Th-T fluorescence of Aβ42 (sheet Fig. 7a), mean of three wells", "setting": "head suffix _20 (concentration 20), reading M65", "value": 2.121},
      {"measurement": "Th-T fluorescence of Aβ42 (sheet Fig. 7a), mean of three wells", "setting": "head suffix _20 (concentration 20), reading M66", "value": 2.113},
      {"measurement": "Th-T fluorescence of Aβ42 (sheet Fig. 7a), mean of three wells", "setting": "head suffix _20 (concentration 20), reading M67", "value": 2.119},
      {"measurement": "Th-T fluorescence of Aβ42 (sheet Fig. 7a), mean of three wells", "setting": "head suffix _20 (concentration 20), reading M68", "value": 2.108},
      {"measurement": "Th-T fluorescence of Aβ42 (sheet Fig. 7a), mean of three wells", "setting": "head suffix _20 (concentration 20), reading M69", "value": 2.09},
      {"measurement": "Th-T fluorescence of Aβ42 (sheet Fig. 7a), mean of three wells", "setting": "head suffix _20 (concentration 20), reading M70", "value": 2.126},
      {"measurement": "Th-T fluorescence of Aβ42 (sheet Fig. 7a), mean of three wells", "setting": "head suffix _20 (concentration 20), reading M71", "value": 2.116},
      {"measurement": "Th-T fluorescence of Aβ42 (sheet Fig. 7a), mean of three wells", "setting": "head suffix _20 (concentration 20), reading M72", "value": 2.113},
      {"measurement": "Th-T fluorescence of Aβ42 (sheet Fig. 7a), mean of three wells", "setting": "head suffix _20 (concentration 20), reading M73", "value": 2.112},
      {"measurement": "Th-T fluorescence of Aβ42 (sheet Fig. 7a), mean of three wells", "setting": "head suffix _20 (concentration 20), reading M74", "value": 2.11},
      {"measurement": "Th-T fluorescence of Aβ42 (sheet Fig. 7a), mean of three wells", "setting": "head suffix _20 (concentration 20), reading M75", "value": 2.104},
      {"measurement": "Th-T fluorescence of Aβ42 (sheet Fig. 7a), mean of three wells", "setting": "head suffix _20 (concentration 20), reading M76", "value": 2.0857},
      {"measurement": "Th-T fluorescence of Aβ42 (sheet Fig. 7a), mean of three wells", "setting": "head suffix _20 (concentration 20), reading M77", "value": 2.081},
      {"measurement": "Th-T fluorescence of Aβ42 (sheet Fig. 7a), mean of three wells", "setting": "head suffix _20 (concentration 20), reading M78", "value": 2.114},
      {"measurement": "Th-T fluorescence of Aβ42 (sheet Fig. 7a), mean of three wells", "setting": "head suffix _20 (concentration 20), reading M79", "value": 2.113},
      {"measurement": "Th-T fluorescence of Aβ42 (sheet Fig. 7a), mean of three wells", "setting": "head suffix _20 (concentration 20), reading M80", "value": 2.11},
      {"measurement": "Th-T fluorescence of Aβ42 (sheet Fig. 7a), mean of three wells", "setting": "head suffix _20 (concentration 20), reading M81", "value": 2.089},
      {"measurement": "Th-T fluorescence of Aβ42 (sheet Fig. 7a), mean of three wells", "setting": "head suffix _20 (concentration 20), reading M82", "value": 2.121},
      {"measurement": "Th-T fluorescence of Aβ42 (sheet Fig. 7a), mean of three wells", "setting": "head suffix _20 (concentration 20), reading M83", "value": 2.116},
      {"measurement": "Th-T fluorescence of Aβ42 (sheet Fig. 7a), mean of three wells", "setting": "head suffix _20 (concentration 20), reading M84", "value": 2.082},
      {"measurement": "Th-T fluorescence of Aβ42 (sheet Fig. 7a), mean of three wells", "setting": "head suffix _50 (concentration 50), reading M63", "value": 1.459},
      {"measurement": "Th-T fluorescence of Aβ42 (sheet Fig. 7a), mean of three wells", "setting": "head suffix _50 (concentration 50), reading M64", "value": 1.462},
      {"measurement": "Th-T fluorescence of Aβ42 (sheet Fig. 7a), mean of three wells", "setting": "head suffix _50 (concentration 50), reading M65", "value": 1.426},
      {"measurement": "Th-T fluorescence of Aβ42 (sheet Fig. 7a), mean of three wells", "setting": "head suffix _50 (concentration 50), reading M66", "value": 1.435},
      {"measurement": "Th-T fluorescence of Aβ42 (sheet Fig. 7a), mean of three wells", "setting": "head suffix _50 (concentration 50), reading M67", "value": 1.458},
      {"measurement": "Th-T fluorescence of Aβ42 (sheet Fig. 7a), mean of three wells", "setting": "head suffix _50 (concentration 50), reading M68", "value": 1.453},
      {"measurement": "Th-T fluorescence of Aβ42 (sheet Fig. 7a), mean of three wells", "setting": "head suffix _50 (concentration 50), reading M69", "value": 1.447},
      {"measurement": "Th-T fluorescence of Aβ42 (sheet Fig. 7a), mean of three wells", "setting": "head suffix _50 (concentration 50), reading M70", "value": 1.435},
      {"measurement": "Th-T fluorescence of Aβ42 (sheet Fig. 7a), mean of three wells", "setting": "head suffix _50 (concentration 50), reading M71", "value": 1.445},
      {"measurement": "Th-T fluorescence of Aβ42 (sheet Fig. 7a), mean of three wells", "setting": "head suffix _50 (concentration 50), reading M72", "value": 1.442}
    ]}
  ]
}
